For 22 molecules, a.r. code results are on record in US20170157301A1, “LEOLIGIN DERIVATIVES AS SMOOTH MUSCLE CELL PROLIFERATION INHIBITORS” (TECHNISCHE UNIVERSITAET WIEN, priority 2014, published 2017).

Each structure is given as a SMILES string.

This assay relates to SMCs in relation to ECs. Description: activity ratio: efficiency towards SMCs / efficiency towards ECs. The following applies: activity ratio class; order in Table 1 follows the calculated values. The assay is classed as cell-based. The method, then:
For determination of vascular SMC proliferation, 0.5×10^4 viable rat aortic SMCs per well were seeded in SMC growth medium (DMEM/F12 medium with 20% serum, 30 μg/mL Gentamicin and 15 ng/mL Amphotericin) in 96-well plates. 24 h later, the medium was removed, the cells were washed once with SMC starvation medium (DMEM/F12 medium with 0.1% serum, 0.2% BSA, 30 μg/mL Gentamicin and 15 ng/mL Amphotericin) and incubated in starvation medium for further 24 h.
The quiescent cells were then pretreated for 30 min with the test compounds and induced to proliferate with 20 ng/mL platelet-derived growth factor (PDGF). Unstimulated cells were utilized for normalization and estimation of the basal level of proliferation. The final concentration of the solvent vehicle, dimethyl sulfoxide (DMSO), was the same (0.1%) in all wells. 48 h later, the SMC proliferation was quantified by resazurin dye conversion for 2 h as previously described (H. Joa et al., J. Nat. Prod. 74(6), 1513-6 (2011)).
For determination of endothelial cell proliferation, 0.5×10^4 HUVECtert immortalized human umbilical vein endothelial cells (H. B. Schiller et al., Mol. Biol. Cell. 20(3), 745-756 (2009)) were seeded in 96-well plates for 24 h in HUVEC Complete Medium (EBM™ growth medium supplemented with 10% fetal bovine serum, EBM™ SingleQuots (Lonza, Basel, Switzerland), 100 U/mL benzylpenicillin, 100 μg/mL streptomycin, and 1% amphotericin). Afterwards, the medium was exchanged with fresh HUVEC Complete Medium and cells were treated with the indicated compounds for 48 h. After the end of the incubation period, the medium was removed, the cells were washed once with 200 μL/well PBS, and treated with 150 μL HUVEC Complete Medium containing 10 μg/mL resazurin. 2 h later, the fluorescence was measured at a wavelength of 580 nm, with excitation wavelength 535 nm in a 96-well plate reader (Tecan GENios Pro; Tecan Group Ltd., Mannedorf, Switzerland).
In every case, the percentage of viable cells was subtracted from 1, in order to obtain a measure of efficiency of the test compounds towards each particular type of cells, and subsequently, the efficiency quotient towards SMCs and ECs was calculated and taken as the “activity ratio” and thus as a measure of selective efficiency of each test compound towards SMCs in relation to ECs. For example, the synthetic Leoligin with the bio ID 2418 prepared in Comparative Example 27 as compound 10-22 gave the following results:
Due to the usual fluctuations in determining surviving cells, which amount to approximately ±10%, and due to the relatively strong resulting fluctuations in calculating quotients—especially if the inhibitory effect of said novel compounds towards ECs is very poor—said threshold value of 1.50 for the activity ratio, as already mentioned above, was introduced.
In the following, a table listing every compound prepared in examples and comparative Examples for which an activity ratio (a.r.) of >1.0 was determined, is given.
In the case of `COc1ccc(C[C@H]2CO[C@H](c3cc(OC)c(OC)c(OC)c3)[C@H]2COC(=O)C2CC2)cc1OC` [Example 41, ((2S,3R,4R)-4-(3,4-dimethoxybenzyl)-2-(3,4,5-trimethoxyphenyl)tetrahydro-furan-3-yl)methyl cyclopropanecarboxylate], the a.r. code result is recorded as “AA (a.r. ≧ 2.0)”.
For the molecule `COc1cc([C@H]2OC[C@H](Cc3ccc(C(C)(C)C)cc3)[C@@H]2CO)cc(OC)c1OC` [Comparative Example 13, ((2S,3R,4R)-4-(4-(tert-butyl)benzyl)-2-(3,4,5-trimethoxyphenyl)tetrahydrofuran-3-yl)methanol], the a.r. code result was “V (1.0 < a.r. < 1.50)”.
For the molecule `COc1ccc(C[C@H]2CO[C@H](c3cc(OC)c(OC)c(OC)c3)[C@H]2COC(=O)C2=CCCC2)cc1OC` [Example 35, ((2S,3R,4R)-4-(3,4-dimethoxybenzyl)-2-(3,4,5-trimethoxyphenyl)tetrahydro-furan-3-yl)methyl cyclopent-1-enecarboxylate], the a.r. code result was “AA (a.r. ≧ 2.0)”.
The entry for `C/C=C(/C)C(=O)OC[C@H]1[C@@H](Cc2ccc(C(=O)OCC)cc2)CO[C@@H]1c1cc(OC)c(OC)c(OC)c1` [Example 22, ethyl 4-(((3R,4R,5S)-4-((((Z)-2-methylbut-2-enoyl)oxy)methyl)-5-(3,4,5-trimethoxyphenyl)tetrahydrofuran-3-yl)methyl)benzoate] is “AA (a.r. ≧ 2.0)”; for `CCC(CC)C(=O)OC[C@H]1[C@@H](Cc2ccc(OC)c(OC)c2)CO[C@@H]1c1ccc(F)cc1` [Example 31, ((2S,3R,4R)-4-(3,4-dimethoxybenzyl)-2-(4-fluorophenyl)tetrahydrofuran-3-yl)-methyl 2-ethylbutanoate] it is “A (a.r. ≧ 1.50)”.
Then `COc1ccc(C[C@H]2CO[C@H](c3ccc(OC)c(OC)c3)[C@H]2COC(=O)C=C(C)C)cc1OC` [Example 25, ((2S,3R,4R)-4-(3,4-dimethoxybenzyl)-2-(3,4-dimethoxyphenyl)tetrahydrofuran-3-yl)methyl 3-methylbut-2-enoate], with “AA (a.r. ≧ 2.0)”; and `COc1ccc(C[C@H]2CO[C@H](c3ccccc3)[C@H]2COC(=O)C2CCCC2)cc1OC` [Example 26, ((2S,3R,4R)-4-(3,4-dimethoxybenzyl)-2-phenyltetrahydrofuran-3-yl)methyl cyclopentanecarboxylate], with “A (a.r. ≧ 1.50)”.
The entry for `CCC(CC)C(=O)OC[C@H]1[C@@H](Cc2ccc(OC)c(OC)c2)CO[C@@H]1c1ccc(OC)c(OC)c1` [Comparative Example 44, ((2S,3R,4R)-4-(3,4-dimethoxybenzyl)-2-(3,4-dimethoxyphenyl)tetrahydrofuran-3-yl)methyl 2-ethylbutanoate] is “V (1.0 < a.r. < 1.50)”; for `COc1ccc(C[C@H]2CO[C@H](c3ccc(OC)c(OC)c3)[C@H]2COC(=O)CC(C)C)cc1OC` [Comparative Example 41, ((2S,3R,4R)-4-(3,4-dimethoxybenzyl)-2-(3,4-dimethoxyphenyl)tetrahydrofuran-3-yl)methyl 3-methylbutanoate] it is “V (1.0 < a.r. < 1.50)”.
Turning to `COc1ccc(C[C@H]2CO[C@H](c3cc(OC)c(OC)c(OC)c3)[C@H]2COC(=O)C2CCCCC2)cc1OC` [Example 39, ((2S,3R,4R)-4-(3,4-dimethoxybenzyl)-2-(3,4,5-trimethoxyphenyl)tetrahydro-furan-3-yl)methyl cyclohexanecarboxylate], the a.r. code entry was “A (a.r. ≧ 1.50)”.
The entry for `COc1ccc(C[C@H]2CO[C@H](c3cc(OC)c(OC)c(OC)c3)[C@H]2COC(=O)C(C)C)cc1OC` [Example 38, ((2S,3R,4R)-4-(3,4-dimethoxybenzyl)-2-(3,4,5-trimethoxyphenyl)tetrahydro-furan-3-yl)methyl isobutyrate] is “AAA (a.r. ≧ 5.0)”; for `C/C=C(/C)C(=O)OC[C@H]1[C@@H](Cc2ccc(C(C)(C)C)cc2)CO[C@@H]1c1ccc(F)cc1` [Example 18, (Z)-((2S,3R,4R)-4-(4-(tert-butyl)benzyl)-2-(4-fluorophenyl)tetrahydrofuran-3-yl)methyl 2-methylbut-2-enoate] it is “AAA (a.r. ≧ 5.0)”; for `COc1cc([C@H]2OC[C@H](Cc3ccc(C)cc3)[C@@H]2COC(=O)C2CCCC2)cc(OC)c1OC` [Comparative Example 39, ((2S,3R,4R)-4-(4-methylbenzyl)-2-(3,4,5-trimethoxyphenyl)tetrahydrofuran-3-yl)methyl cyclopentanecarboxylate] it is “V (1.0 < a.r. < 1.50)”.
Then `C/C=C(\C)C(=O)OC[C@H]1[C@@H](Cc2ccc(OC)c(OC)c2)CO[C@@H]1c1ccc(OC)c(OC)c1` [Comparative Example 35, (E)-((2S,3R,4R)-4-(3,4-dimethoxybenzyl)-2-(3,4-dimethoxyphenyl)tetrahydro-furan-3-yl)methyl 2-methylbut-2-enoate], with “V (1.0 < a.r. < 1.50)”.
The entry for `COc1ccc(C[C@H]2CO[C@H](c3ccc(F)cc3)[C@H]2COC(=O)C2CCCC2)cc1OC` [Example 29, ((2S,3R,4R)-4-(3,4-dimethoxybenzyl)-2-(4-fluorophenyl)tetrahydrofuran-3-yl)-methyl cyclopentanecarboxylate] is “A (a.r. ≧ 1.50)”.
With `COc1ccc(C[C@H]2CO[C@H](c3cc(OC)c(OC)c(OC)c3)[C@H]2COC(=O)C=C(C)C)cc1OC` [Example 19, ((2S,3R,4R)-4-(3,4-dimethoxybenzyl)-2-(3,4,5-trimethoxyphenyl)tetrahydro-furan-3-yl)methyl 3-methylbut-2-enoate], the a.r. code result is “AAA (a.r. ≧ 5.0)”.
In the case of `C/C=C(/C)C(=O)OC[C@H]1[C@@H](Cc2ccc(CCCC)cc2)CO[C@@H]1c1ccc(OC)c(OC)c1` [Example 13, (Z)-((2S,3R,4R)-4-(4-butylbenzyl)-2-(3,4-dimethoxyphenyl)tetrahydrofuran-3-yl)methyl 2-methylbut-2-enoate], the a.r. code entry was “AAA (a.r. ≧ 5.0)”.
The entry for `COc1ccc(C[C@H]2CO[C@H](c3ccc(OC)c(OC)c3)[C@H]2COC(=O)C2CCCCC2)cc1OC` [Comparative Example 37, ((2S,3R,4R)-4-(3,4-dimethoxybenzyl)-2-(3,4-dimethoxyphenyl)tetrahydrofuran-3-yl)methyl cyclohexanecarboxylate] is “V (1.0 < a.r. < 1.50)”; for `COc1ccc([C@H]2OC[C@H](Cc3ccc(C(C)(C)C)cc3)[C@@H]2CO)cc1OC` [Example 1, ((2S,3R,4R)-4-(4-(tert-butyl)benzyl)-2-(3,4-dimethoxyphenyl)tetrahydrofuran-3-yl)methanol] it is “A (a.r. ≧ 1.50)”; for `C/C=C(/C)C(=O)OC[C@H]1[C@@H](Cc2ccccc2)CO[C@@H]1c1cc(OC)c(OC)c(OC)c1` [Comparative Example 31, (Z)-((2S,3R,4R)-4-benzyl-2-(3,4,5-trimethoxyphenyl)tetrahydrofuran-3-yl)-methyl 2-methylbut-2-enoate] it is “V (1.0 < a.r. < 1.50)”.
Then `COc1ccc(C[C@H]2CO[C@H](c3ccc(OC)c(OC)c3)[C@H]2COC(=O)CC23CC4CC(CC(C4)C2)C3)cc1OC` [Example 27, ((2S,3R,4R)-4-(3,4-dimethoxybenzyl)-2-(3,4-dimethoxyphenyl)tetrahydrofuran-3-yl) methyl 2-(adamantan-1-yl)acetate], with “AA (a.r. ≧ 2.0)”.
The entry for `COc1ccc(C[C@H]2CO[C@H](c3ccc(OC)c(OC)c3)[C@H]2COC(=O)c2ccc3ccccc3c2)cc1OC` [Comparative Example 38, ((2S,3R,4R)-4-(3,4-dimethoxybenzyl)-2-(3,4-dimethoxyphenyl)tetrahydrofuran-3-yl)methyl 2-naphthoate] is “V (1.0 < a.r. < 1.50)”.
